The results in this text go back to patent publication US9187472B2 (AbbVie Inc., priority 2012, dated 2015).

pIC50: −log10 of the molar value.

This experiment deals with PC3 cells. Description: NAMPT Cell Proliferation Assay. The conditions noted are these: Homo sapiens, PC-3, 120 h, 5 days incubation, cell viability by Cell Titer Glo. Type of experiment: cell-based. As for the experimental part: NAMPT Cell Proliferation Assay
PC3 cells were seeded in 96-well black plates (Corning #3904) at 500 cells/well in 90 μl of RPMI media containing 10% heat-inactivated FBS and incubated overnight at 37° C. and 5% CO2 to allow cells to attach to wells. The following day, test compounds were serially diluted in neat DMSO to 1000× final concentrations prior to dilution with RPMI media to 10× and 1% DMSO. Ten μL of the 10× compounds were then transferred to wells containing cells to produce a dose response of 10-fold dilutions from 10 μM to 1×10^−5 μM. Cells were incubated for 5 days at 37° C. and 5% CO2, then cell viability was measured using Cell Titer Glo reagent (Promega #G7571). Percent inhibition values were calculated and fitted to a sigmoidal dose response curves using Assay Explorer software to determine IC50s.
(Cellular ATP, detected with luciferase, serves as a proxy for viable cell number.)
The term pIC50 denotes the negative decadic logarithm of the IC50, by convention in mol/L. A higher pIC50 goes with a low IC50. As to `CC(C)S(=O)(=O)N1CCC(c2ccc(C(=O)NCc3ccc4ncnn4c3)s2)CC1` [Example 859, 5-[1-(propan-2-ylsulfonyl)piperidin-4-yl]-N-([1,2,4]triazolo[1,5-a]pyridin-6-ylmethyl)thiophene-2-carboxamide], the negative-log IC50 (pIC50) is 7.98. Next, `O=C(NCc1ccc2ncnn2c1)c1ccc(C2CCN(S(=O)(=O)c3ccccc3)CC2)s1` [Example 860, 5-[1-(phenylsulfonyl)piperidin-4-yl]-N-([1,2,4]triazolo[1,5-a]pyridin-6-ylmethyl)thiophene-2-carboxamide]: 8.08; `CC1(Cn2cc(-c3ccc(C(=O)NCc4cn5ccnc5cn4)s3)cn2)CCOCC1` [Example 861, N-(imidazo[1,2-a]pyrazin-6-ylmethyl)-5-{1-[(4-methyltetrahydro-2H-pyran-4-yl)methyl]-1H-pyrazol-4-yl}thiophene-2-carboxamide]: 9.24.

The compound `CC(C)(C)OC(=O)N1CCC(c2ccc(NC(=O)Cc3ccc4nccn4c3)cc2)CC1` [Example 862, tert-butyl 4-{4-[(imidazo[1,2-a]pyridin-6-ylacetyl)amino]phenyl}piperidine-1-carboxylate] had a negative-log IC50 (pIC50) of 9.11. With `O=C(Cc1ccc2nccn2c1)Nc1ccc(C2CCN(C(=O)c3ccccc3F)CC2)cc1` [Example 863, N-{4-[1-(2-fluorobenzoyl)piperidin-4-yl]phenyl}-2-(imidazo[1,2-a]pyridin-6-yl)acetamide], the negative logarithm of the IC50 (pIC50) is 9.19.

In turn, `O=C(NCc1cn2ccnc2cn1)c1ccc(C2CCN(S(=O)(=O)c3ccccc3)CC2)cc1` [Example 864, N-(imidazo[1,2-a]pyrazin-6-ylmethyl)-4-[1-(phenylsulfonyl)piperidin-4-yl]benzamide] gave a negative logarithm of the IC50 (pIC50) of 7.17. This pIC50 lies 2.02 log units lower than the previous one. `CC(C)C(=O)N1CCC(c2ccc(NC(=O)Cc3ccc4nccn4c3)cc2)CC1` [Example 865, 2-(imidazo[1,2-a]pyridin-6-yl)-N-{4-[1-(2-methylpropanoyl)piperidin-4-yl]phenyl}acetamide] had a pIC50 of 9.06. Next, `O=C(Cc1ccc2nccn2c1)Nc1ccc(C2CCN(C(=O)c3ccc(F)cc3F)CC2)cc1` [Example 866, N-{4-[1-(2,4-difluorobenzoyl)piperidin-4-yl]phenyl}-2-(imidazo[1,2-a]pyridin-6-yl)acetamide]: 9.28. Compound `COc1ccccc1CC(=O)Nc1ccc(C(=O)NCc2ccn3ccnc3c2)cc1` [Example 867, N-(imidazo[1,2-a]pyridin-7-ylmethyl)-4-{[(2-methoxyphenyl)acetyl]amino}benzamide] showed a negative-log IC50 (pIC50) of 7.16. This pIC50 lies 2.12 log units lower than the previous one. With `O=C(Cc1ccccc1)Nc1ccc(C(=O)NCc2ccn3ccnc3c2)cc1` [Example 868, N-(imidazo[1,2-a]pyridin-7-ylmethyl)-4-[(phenylacetyl)amino]benzamide] the figure was 7.06.

In turn, `O=C(NCc1ccn2ccnc2c1)c1ccc(NC(=O)c2ccccc2)cc1` [Example 869, 4-(benzoylamino)-N-(imidazo[1,2-a]pyridin-7-ylmethyl)benzamide] had a pIC50 of 5.16.

The compound `O=C(NCc1ccn2ccnc2c1)c1ccc(NC(=O)c2cc(F)ccc2F)cc1` [Example 870, 2,5-difluoro-N-{4-[(imidazo[1,2-a]pyridin-7-ylmethyl)carbamoyl]phenyl}benzamide] had a pIC50 of 6.00. This pIC50 lies 0.84 log units higher than the previous one. As to `O=C(NCc1ccn2ccnc2c1)c1ccc(NC(=O)c2cc(F)cc(F)c2)cc1` [Example 871, 3,5-difluoro-N-{4-[(imidazo[1,2-a]pyridin-7-ylmethyl)carbamoyl]phenyl}benzamide], the negative logarithm of the IC50 (pIC50) is 5.14. Against the preceding compound, the pIC50 is 0.86 log units lower.

For the compound `O=C(NCc1ccn2ccnc2c1)c1ccc(NC(=O)c2ccc(F)c(F)c2)cc1` [Example 872, 3,4-difluoro-N-{4-[(imidazo[1,2-a]pyridin-7-ylmethyl)carbamoyl]phenyl}benzamide], the pIC50 is < 5.00. With `O=C(NCc1ccn2ccnc2c1)c1ccc(NC(=O)c2ccc(F)cc2F)cc1` [Example 873, 2,4-difluoro-N-{4-[(imidazo[1,2-a]pyridin-7-ylmethyl)carbamoyl]phenyl}benzamide] the figure was 5.41.

`O=C(NCc1ccn2ccnc2c1)c1ccc(NC(=O)c2ccccc2F)cc1` [Example 874, 2-fluoro-N-{4-[(imidazo[1,2-a]pyridin-7-ylmethyl)carbamoyl]phenyl}benzamide]: the negative-log IC50 (pIC50) was 5.18. As for `COc1cccc(C(=O)Nc2ccc(C(=O)NCc3ccn4ccnc4c3)cc2)c1` [Example 875, N-{4-[(imidazo[1,2-a]pyridin-7-ylmethyl)carbamoyl]phenyl}-3-methoxybenzamide], the negative-log IC50 (pIC50) was 5.94.

Take `O=C(Cc1ccccc1F)Nc1ccc(C(=O)NCc2ccn3ccnc3c2)cc1` [Example 876, 4-{[(2-fluorophenyl)acetyl]amino}-N-(imidazo[1,2-a]pyridin-7-ylmethyl)benzamide]: the pIC50 was 7.32. Next, `CC(C)CC1CCCN1C(=O)c1ccc(C(=O)NCc2ccn3ccnc3c2)cc1` (stereo not drawn) [Example 877, N-(imidazo[1,2-a]pyridin-7-ylmethyl)-4-{[2-(2-methylpropyl)pyrrolidin-1-yl]carbonyl}benzamide]: < 5.00; `COC[C@H]1CCCN1C(=O)c1ccc(C(=O)NCc2ccn3ccnc3c2)cc1` [Example 878, N-(imidazo[1,2-a]pyridin-7-ylmethyl)-4-{[(2R)-2-(methoxymethyl)pyrrolidin-1-yl]carbonyl}benzamide]: < 5.00; `CC(C)(C(=O)N1CCC(c2ccc(C(=O)NCc3ccn4ccnc4c3)s2)CC1)N1CCNCC1` [Example 879, N-(imidazo[1,2-a]pyridin-7-ylmethyl)-5-{1-[2-methyl-2-(piperazin-1-yl)propanoyl]piperidin-4-yl}thiophene-2-carboxamide]: 7.20. As for `COc1ccccc1C(=O)Nc1ccc(C(=O)NCc2ccn3ccnc3c2)cc1` [Example 880, N-{4-[(imidazo[1,2-a]pyridin-7-ylmethyl)carbamoyl]phenyl}-2-methoxybenzamide], the pIC50 is 6.12. With `O=C(NCc1ccn2ccnc2c1)c1ccc(S(=O)(=O)c2ccccc2)cc1` [Example 881, N-(imidazo[1,2-a]pyridin-7-ylmethyl)-4-(phenylsulfonyl)benzamide] the figure was 5.07; with `O=C(NCc1ccc2ncnn2c1)c1ccc(S(=O)(=O)c2ccccc2)cc1` [Example 882, 4-(phenylsulfonyl)-N-([1,2,4]triazolo[1,5-a]pyridin-6-ylmethyl)benzamide], < 5.00; with `CC(C)(C)Cn1cc(-c2ccc(C(=O)NCc3ccn4ccnc4c3)s2)cn1` [Example 883, 5-[1-(2,2-dimethylpropyl)-1H-pyrazol-4-yl]-N-(imidazo[1,2-a]pyridin-7-ylmethyl)thiophene-2-carboxamide], 9.66. Next, `O=C(NCc1ccn2ccnc2c1)c1ccc(-c2cnn(CC34CC5CC(CC(C5)C3)C4)c2)s1` [Example 884]: 9.01.

The compound `O=C(NCc1ccn2ccnc2c1)c1ccc(-c2cnn(Cc3ccccc3)c2)s1` [Example 885, 5-(1-benzyl-1H-pyrazol-4-yl)-N-(imidazo[1,2-a]pyridin-7-ylmethyl)thiophene-2-carboxamide] had a pIC50 of 8.27. For the compound `O=C(NCc1ccn2ccnc2c1)c1ccc(-c2cnn(CC34CC5CC(CC(C5)O3)C4)c2)s1` [Example 886], the pIC50 was 9.71. Consider `O=C(NCc1ccn2ccnc2c1)c1ccc(C2CCN(C(=O)c3cc(F)ccc3F)CC2)s1` [Example 887, 5-[1-(2,5-difluorobenzoyl)piperidin-4-yl]-N-(imidazo[1,2-a]pyridin-7-ylmethyl)thiophene-2-carboxamide], for which the pIC50 is 9.67. With `O=C(NCc1ccn2ccnc2c1)c1ccc(C2CCN(C(=O)c3ccc(F)cc3F)CC2)s1` [Example 888, 5-[1-(2,4-difluorobenzoyl)piperidin-4-yl]-N-(imidazo[1,2-a]pyridin-7-ylmethyl)thiophene-2-carboxamide] the figure was 9.31; with `O=C(NCc1ccn2ccnc2c1)c1ccc(-c2cnn(CCN3CCNCC3)c2)o1` [Example 889, N-(imidazo[1,2-a]pyridin-7-ylmethyl)-5-{1-[2-(piperazin-1-yl)ethyl]-1H-pyrazol-4-yl}furan-2-carboxamide], 6.19.

`O=C(Cc1cc(F)ccc1F)Nc1ccc(C(=O)NCc2ccn3ccnc3c2)cc1` [Example 890, 4-{[(2,5-difluorophenyl)acetyl]amino}-N-(imidazo[1,2-a]pyridin-7-ylmethyl)benzamide]: the pIC50 is 7.50. With `O=C(Cc1ccc(F)cc1F)Nc1ccc(C(=O)NCc2ccn3ccnc3c2)cc1` [Example 891, 4-{[(2,4-difluorophenyl)acetyl]amino}-N-(imidazo[1,2-a]pyridin-7-ylmethyl)benzamide] the figure was 7.06. Next, `Cn1nc(C2CC2)cc1-c1ccc(C(=O)NCc2ccn3ccnc3c2)s1` [Example 892, 5-(3-cyclopropyl-1-methyl-1H-pyrazol-5-yl)-N-(imidazo[1,2-a]pyridin-7-ylmethyl)thiophene-2-carboxamide]: 8.17. With `COCCn1nc(C2CC2)cc1-c1ccc(C(=O)NCc2ccn3ccnc3c2)s1` [Example 893, 5-[3-cyclopropyl-1-(2-methoxyethyl)-1H-pyrazol-5-yl]-N-(imidazo[1,2-a]pyridin-7-ylmethyl)thiophene-2-carboxamide] the figure was 9.18; with `O=C(NCc1cn2ccnc2cn1)c1ccc(-c2cnn(CCN3CCNCC3)c2)s1` [Example 894, N-(imidazo[1,2-a]pyrazin-6-ylmethyl)-5-{1-[2-(piperazin-1-yl)ethyl]-1H-pyrazol-4-yl}thiophene-2-carboxamide], 6.69.
